# Measured values from US20240226100A1, “CONTROL OF PROTEIN EXPRESSION WITH TMP-PROTAC COMPOUNDS” (THE TRUSTEES OF THE UNIVERSITY OF PENNSYLVANIA, priority 2021, published 2024).
# Columns and labels:
# eDHFR-YFP [1] = test: Degradation of eDHFR-YFP in HEK293T eDHFR-YFP+ cells, Western blot with anti-YFP antibody; type: cell-based, Escherichia coli; settings: 100 nM, 24 h
# Method: HEK293T eDHFR-YFP (HEK293T^eDHFR-YFP+) and OVCAR8 eDHFR-luc (OVCAR8^eDHFR-luc+) cells are prepared in clear (Falcon) 6-well plates (5×10^5 cells/well) and cultured in complete media. Compound 7c is solubilized in 100% DMSO to 10 mM. 10 mM 7c is serially diluted in sterile water accordingly and each dose administered to cells in fresh media at equal volume, such that the final concentration of DMSO in cell media is <1%. Once incubation with drug is completed, media is removed by vacuum, cells are washed with phosphate-buffered saline (PBS), trypsonized at 37° C., quenched with media, and centrifuged (Thermo Scientific Sorvall Legend X1R) at 1000 RPM for 5 minutes. Media and cell debris are removed by vacuum.
# Once cells are isolated by centrifugation (Thermo Scientific Sorvall Legend X1R), they are solubilized in radioimmunoprecipitation assay (RIPA) lysis buffer with protease inhibitor. Cell lysate is incubated on ice for 30 minutes, sonicated, then centrifuged (Thermo Scientific Sorvall Legend Micro 21R) at 14,800 RPM for 10 minutes. Supernatant is removed and transferred to a new Eppendorf tube.
# Using Thermo Scientific bicinchoninic acid (BCA) assay kit, total cell protein is quantified and compared to bovine serum albumin (BSA) standards ranging from 10 to 0.625 mg/mL. Cell lysate is aliquoted into a 96-well clear plate (Falcon) and mixed with reagent and shaken at 37° C. for 30 minutes. Samples are analyzed by plate reader (ThermoFisher Varioskan Plusplate), where absorbance is measured at […]. A calibration curve is developed, and samples are prepared to equal mass (mg) of total protein for gel electrophoresis.
# Cell lysate is prepared by mixing with 4 uL of loading dye and PBS to give equal total protein and equal total volume across all samples. Each sample is loaded into a NuPage gel (4-12% Bis-tris) and developed in NuPage MES Running Buffer. Once complete, the gel is removed and prepared for protein transfer to membrane. […]
# eDHFR-YFP [2] = test: Time and dose-dependent degradation of YFP in Jurkat-DYL / Jurkat eDHFR-YFP+ cells, flow cytometry; type: cell-based, Escherichia coli
# Method: Likewise, Jurkat eDHFR-YFP (Jurkat^eDHFR-YFP+) cells are seeded in clear (Falcon) 12-well plates (3×10^5 cells/well) in complete media. […]
# eDHFR-YFP [3] = test: Degradation of YFP in HEK293T-DYL cells, flow cytometry; type: cell-based, Escherichia coli; settings: 72 and 96 h, varying doses
# Text: The left panel represents the mean YFP fluorescence and the right panel represents the same data in percent of maximum YFP fluorescence normalized to HEK293T-DYL treated with DMSO.
# eDHFR-Luc [4] = test: Degradation of luciferase in Jurkat-DL cells, luminescence; type: cell-based, Escherichia coli; settings: 4, 8 and 18 h, varying doses
# eDHFR-YFP [5] = test: Washout experiment, reversal of YFP degradation in Jurkat eDHFR-YFP+ cells, flow cytometry; type: cell-based, Escherichia coli; settings: 100 nM, washout after 24 h
# Method: Jurkat^eDHFR-YFP+ cells were seeded in a clear (Falcon) 12-well plate (3×10^5 cells/well) in complete media and incubated overnight. The following day, all wells were dosed with 100 nM of 7c, and cells were sampled at 0, 4, 8, 12, and 24 h following incubation (1 well was sampled per time point). Following 24 h incubation, remaining wells of cells were collected and centrifuged (Thermo Scientific Sorvall Legend X1R) at 1200 rpm for 5 minutes. Cells were washed 3 times with PBS and seeded on a new clear (Falcon) 12-well plate in fresh complete media. The cells were sampled at 3, 6, 24, 48, and 72 h following the drug washout. All cells were fixed in 4% PFA following sampling, and all samples from […] were analyzed together on a flow cytometer (BD).
# FAP-eDHFR DF CAR T cells = test: In vitro killing assay of FAP-eDHFR DF CAR T cells against I45 huFAP-Luc target cells
# IFNγ = test: Cytokine release assay, IFNγ ELISA of killing assay supernatant; type: cell-based, human; settings: for T cell IFNγ release / secretion: supernatant of killing assay, 100 nM compound
# Method: (§1) The concentration of TNF-α and IFN-g in the supernatants following killing assay was determined by ELISA.
# [6] = tested on: FAP CAR-eDHFR fusion protein; test: CAR downregulation in Jurkat cells expressing FAP CAR-eDHFR fusion protein, flow cytometry; type: cell-based, Escherichia coli; settings: serial time points
# Text: Data plotted as raw CAR stain fluorescence is shown in the left panel and percent of maximum CAR expression is shown in the right panel.
# TNFα = test: Cytokine release assay, TNFα ELISA of killing assay supernatant; type: cell-based, human
# Method: as §1
# eDHFR-Luc [7] = test: Degradation of luciferase in HEK293T-DL cells, luminescence; type: cell-based, Escherichia coli; settings: 12 and 24 h, varying doses
# [8] = tested on: FAP CAR-eDHFR direct fusion (DF); test: Inhibitor test in primary human FAP-eDHFR DF CAR T cells, flow cytometry; type: cell-based; settings: primary human FAP-eDHFR DF CAR T cells
# Method: Following pre-incubation, either 100 nM 7c or vehicle control DMSO (Sigma) was added to the wells, and cells were incubated with the drug for another 4 hours. Following incubation, the cells were washed and their surface CAR expression was assessed on a flow cytometer (BD Biosciences).
# Following pre-incubation, the cells were incubated with 100 nM 7c for 4 hours and their CAR expression was assessed on a flow cytometer.
# [9] = different concentrations, 10:1 E:T
structure (smiles),measurement,setting,value
"COc1cc(Cc2cnc(N)nc2N)cc(OC)c1OCCCC(=O)NCCOCCOCCNc1cccc2c1C(=O)N(C1CCC(=O)NC1=O)C2=O (stereo not shown) [Compound 7c, 4-(4-((2,4-diaminopyrimidin-5-yl)methyl)-2,6-dimethoxyphenoxy)-N-(2-(2-(2-((2-(2,6-dioxopiperidin-3-yl)-1,3-dioxoisoindolin-4-yl)amino)ethoxy)ethoxy)ethyl)butanamide]",eDHFR-YFP degradation at 100 nM,eDHFR-YFP [1],causes eDHFR-YFP to degrade
same,"YFP remaining, % of maximum (no drug control)","eDHFR-YFP [2]; Jurkat eDHFR-YFP+, as early as 4 h",20 % of maximum
same,degradation of YFP (eDHFR fusion protein),"eDHFR-YFP [2]; Jurkat-DYL, 4, 8 and 18 h incubation, varying doses",degrade eDHFR fusion proteins to low/no functional expression
same,degradation of YFP,eDHFR-YFP [3],degraded
same,degradation of luciferase,eDHFR-Luc [4],degraded
same,time to full return of YFP expression to baseline following drug washout,eDHFR-YFP [5],approximately 72 h
same,cytotoxic function of FAP-eDHFR CAR T cells against FAP-expressing target cells,"FAP-eDHFR DF CAR T cells; CAR T cells pre-incubated 24 h with 100 nM compound, varying E:T ratios",inhibition of their cytotoxic function
same,cytotoxic activity of FAP-eDHFR DF CAR T cells across concentrations,"FAP-eDHFR DF CAR T cells; pre-incubated overnight at different concentrations, 10:1 E:T",tunable in a dose-dependent manner
same,IFNγ secretion across concentrations,IFNγ; [9],inhibition of CAR T cell signaling
same,T cell IFNγ release / secretion,IFNγ,inhibits
same,T cell IFNγ release / secretion,IFNγ; listed as TMP-POM 7c,inhibition of CAR T cell signaling
same,degradation of CAR molecules from the surface of Jurkat cells,[6],leads to degradation of CAR molecules from the surface of Jurkat cells
same,TNFα secretion across concentrations,TNFα; [9],inhibition of CAR T cell signaling
same,T cell TNF-α release,"TNFα; supernatant of killing assay, 100 nM compound",inhibits
same,degradation of luciferase,eDHFR-Luc [7],degraded
same,mechanism of CAR downregulation,[8],proteosome-mediated degradation process
